From patent publication US10266497B2 (ABIDE THERAPEUTICS, INC., priority 2017, dated 2019)

Experiments:
MAGL [1] = molecular target: T1, MAGL (Homo sapiens, UniProt Q99685); assay: In vitro competitive activity-based protein profiling, MAGL, human; settings: for inhibition at 1 µM: read-out: MAGL % inh. 1 μM (human)
T1 sequence (Q99685 1-303): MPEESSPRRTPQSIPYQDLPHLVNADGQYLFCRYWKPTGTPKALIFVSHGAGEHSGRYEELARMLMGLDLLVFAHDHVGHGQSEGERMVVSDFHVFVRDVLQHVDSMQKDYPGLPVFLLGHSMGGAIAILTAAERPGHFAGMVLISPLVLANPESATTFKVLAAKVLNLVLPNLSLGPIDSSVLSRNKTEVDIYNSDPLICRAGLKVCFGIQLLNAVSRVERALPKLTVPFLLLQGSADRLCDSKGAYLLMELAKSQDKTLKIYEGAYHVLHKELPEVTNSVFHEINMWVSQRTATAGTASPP

MAGL [2] = molecular target: T2, MAGL (Mus musculus, UniProt O35678); assay: In vitro competitive activity-based protein profiling, MAGL, mouse; settings: read-out: MAGL % inh. 1 μM (mouse)
T2 sequence (O35678 1-303): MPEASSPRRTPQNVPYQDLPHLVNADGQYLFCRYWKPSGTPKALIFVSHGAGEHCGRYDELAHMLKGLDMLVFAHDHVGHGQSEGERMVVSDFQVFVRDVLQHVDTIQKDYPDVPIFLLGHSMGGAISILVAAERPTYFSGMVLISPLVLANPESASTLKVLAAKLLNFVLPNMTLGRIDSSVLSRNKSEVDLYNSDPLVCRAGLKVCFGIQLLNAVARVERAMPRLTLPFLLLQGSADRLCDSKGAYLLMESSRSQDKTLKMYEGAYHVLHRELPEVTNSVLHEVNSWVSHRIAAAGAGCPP

FAAH [3] = molecular target: T3, FAAH (Mus musculus, UniProt O08914); assay: In vitro competitive activity-based protein profiling, FAAH, mouse; settings: read-out: FAAH % inh. 1 μM (mouse)
T3 sequence (O08914 1-579): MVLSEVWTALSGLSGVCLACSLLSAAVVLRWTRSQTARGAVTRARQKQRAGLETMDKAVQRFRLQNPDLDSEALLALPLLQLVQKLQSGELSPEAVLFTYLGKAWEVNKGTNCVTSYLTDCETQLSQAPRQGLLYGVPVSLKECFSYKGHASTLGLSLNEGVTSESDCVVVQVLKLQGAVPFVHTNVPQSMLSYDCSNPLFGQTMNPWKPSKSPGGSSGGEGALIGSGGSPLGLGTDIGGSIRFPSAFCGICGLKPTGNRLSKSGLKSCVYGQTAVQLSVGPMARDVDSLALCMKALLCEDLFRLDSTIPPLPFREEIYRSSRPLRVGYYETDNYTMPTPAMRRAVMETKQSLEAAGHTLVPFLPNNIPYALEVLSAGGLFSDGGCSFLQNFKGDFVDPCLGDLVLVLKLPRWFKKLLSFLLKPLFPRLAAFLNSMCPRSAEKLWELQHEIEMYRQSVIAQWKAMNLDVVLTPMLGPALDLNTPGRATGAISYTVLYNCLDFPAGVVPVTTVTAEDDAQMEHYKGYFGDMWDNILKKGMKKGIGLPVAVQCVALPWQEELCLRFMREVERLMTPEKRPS

FAAH [4] = molecular target: T4, FAAH (Homo sapiens, UniProt O00519); assay: In vitro competitive activity-based protein profiling, FAAH, human; settings: for inhibition at 1 µM: read-out: FAAH % inh. 1 μM (human)
T4 sequence (O00519 1-579): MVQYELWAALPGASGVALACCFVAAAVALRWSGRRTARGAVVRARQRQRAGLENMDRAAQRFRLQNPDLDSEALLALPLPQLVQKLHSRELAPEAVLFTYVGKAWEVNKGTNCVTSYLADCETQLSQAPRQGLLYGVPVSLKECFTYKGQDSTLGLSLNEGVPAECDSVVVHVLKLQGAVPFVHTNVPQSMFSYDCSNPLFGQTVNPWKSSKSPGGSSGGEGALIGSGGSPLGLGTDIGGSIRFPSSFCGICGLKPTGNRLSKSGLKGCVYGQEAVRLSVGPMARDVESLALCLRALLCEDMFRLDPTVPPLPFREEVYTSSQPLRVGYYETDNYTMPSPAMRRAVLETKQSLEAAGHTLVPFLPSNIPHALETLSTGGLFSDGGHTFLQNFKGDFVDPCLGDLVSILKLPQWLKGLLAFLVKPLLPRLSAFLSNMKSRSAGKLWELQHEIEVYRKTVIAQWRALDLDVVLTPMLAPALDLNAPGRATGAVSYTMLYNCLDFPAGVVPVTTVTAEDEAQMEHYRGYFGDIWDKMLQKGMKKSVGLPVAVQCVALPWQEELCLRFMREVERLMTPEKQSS

Structure (SMILES)	inhibition at 1 µM (MAGL [1])	inhibition at 1 µM (MAGL [2])	inhibition at 1 µM (FAAH [3])	inhibition at 1 µM (FAAH [4])	IC50 (MAGL [1])	IC50 (FAAH [4])	inhibition at 10 µM (MAGL [1]; read-out: MAGL % inh. (human) at 10 uM)	inhibition at 10 µM (FAAH [4]; read-out: FAAH % inh. (human) at 10 uM)
O=C(O)c1ccn(C(=O)N2C[C@H]3C[C@@H](OCc4ccccc4Cl)C[C@H]3C2)n1 [Example 41, 1-(cis-5-((2-chlorobenzyl)oxy)octahydrocyclo-penta[c]pyrrole-2-carbonyl)-1H-pyrazole-3-carboxylic acid]	> 75%	0 to 25%	0 to 25%	> 75%				
O=C(O)c1ccn(C(=O)N2CCC(OCc3cc(F)cc(Cl)c3)CC2)n1 [Example 42, 1-(4-((3-chloro-5-fluorobenzyl)oxy)piperidine-1-carbonyl)-1H-pyrazole-3-carboxylic acid]	> 75%	> 75%	0 to 25%	> 75%	0.1 to 1 µM	0.1 to 1 µM		
O=C(O)c1ccn(C(=O)N2CCC3(CCN(Cc4cc(Cl)cc(N5CCCC5)c4)C3)CC2)n1 [Example 44, 1-(2-(3-chloro-5-(pyrrolidin-1-yl)benzyl)-2,8-diazaspiro[4.5]decane-8-carbonyl)-1H-pyrazole-3-carboxylic acid]	> 75%	> 75%	0 to 25%	0 to 25%				
O=C(O)c1ccn(C(=O)N2CCN(Cc3ccc(Oc4ccc(Cl)cc4)cc3)CC2)n1 [Example 45, 1-(4-(4-(4-chlorophenoxy)benzyl)piperazine-1-carbonyl)-1H-pyrazole-3-carboxylic acid]	> 75%	> 75%	> 75%	> 75%		0.1 to 1 µM		
CN(Cc1ccc(Cl)cc1N1CCCC1)C1(C)CCN(C(=O)n2ccc(C(=O)O)n2)CC1 [Example 46, 1-(4-((4-chloro-2-(pyrrolidin-1-yl)benzyl)(methyl)amino)-4-methylpiperidine-1-carbonyl)-1H-pyrazole-3-carboxylic acid]	> 75%	> 75%	0 to 25%	0 to 25%				
CN(Cc1cccc(Cl)c1N1CCCC1)C1(C)CCN(C(=O)n2ccc(C(=O)O)n2)CC1 [Example 47, 1-(4-((3-chloro-2-(pyrrolidin-1-yl)benzyl)(methyl)amino)-4-methylpiperidine-1-carbonyl)-1H-pyrazole-3-carboxylic acid]	> 75%	> 75%	0 to 25%	0 to 25%				
O=C(O)c1ccn(C(=O)N2CCN(Cc3ccc(C(F)(F)F)cc3N3CCN4CCC[C@H]4C3)CC2)n1 [Example 49, (S)-1-(4-(2-(hexahydropyrrolo [1,2-a]pyrazin-2(1H)-yl)-4-(trifluoromethyl)benzyl)piperazine-1-carbonyl)-1H-pyrazole-3-carboxylic acid]	> 75%	> 75%	0 to 25%	0 to 25%				
C#Cc1ccc(CN2CCN(C(=O)n3ccc(C(=O)O)n3)CC2)cc1 [Example 50, 1-(4-(4-ethynylbenzyl)piper-azine-1-carbonyl)-1H-pyrazole-3-carboxylic acid]		0 to 25%	0 to 25%				> 75%	> 75%
O=C(O)c1ccn(C(=O)N2CCN(Cc3cccc(Oc4ccccn4)c3)CC2)n1 [Example 52]	> 75%	> 75%	0 to 25%	0 to 25%				
O=C(O)c1ccn(C(=O)N2C[C@H]3C[C@H](OCc4cc(F)cc(Cl)c4)C[C@H]3C2)n1 [Example 53, 1-(trans-5-((3-chloro-5-fluorobenzyl)oxy)octahydrocyclopenta [c]pyrrole-2-carbonyl)-1H-pyrazole-3-carboxylic acid]	> 75%	> 75%	> 75%	> 75%		0.1 to 1 µM		
CN(Cc1cc(Cl)ccc1C(F)(F)F)CC1CCN(C(=O)n2cc(Cl)c(C(=O)O)n2)CC1 [Example 54, 4-chloro-1-(4-(((5-chloro-2-(trifluoromethyl)benzyl)(methyl)amino)methyl)piper-idine-1-carbonyl)-1H-pyrazole-3-carboxylic acid]	> 75%	> 75%	> 75%	> 75%		0.1 to 1 µM		
O=C(O)c1ccn(C(=O)N2CCC3(CCCN3C(=O)c3cc4ccc(C(F)(F)F)cc4s3)CC2)n1 [Example 56, 1-(1-(6-(trifluoromethyl)benzo[b]thiophene-2-carbonyl)-1,8-diazaspiro[4.5]decane-8-carbonyl)-1H-pyrazole-3-carboxylic acid]	> 75%	> 75%	50 to 75%	0 to 25%				
O=C(O)c1ccn(C(=O)N2CCC3(CCN(C(=O)c4cc5ccc(C(F)(F)F)cc5s4)C3)CC2)n1 [Example 58, 1-(2-(6-(trifluoromethyl)benzo[b]thiophene-2-carbonyl)-2,8-diazaspiro[4.5]decane-8-carbonyl)-1H-pyrazole-3-carboxylic acid]	> 75%	> 75%	50 to 75%	0 to 25%				
O=C(O)c1ccn(C(=O)N2CCN(Cc3cccc(Oc4ccncc4)c3)CC2)n1 [Example 59, 1-(4-(3-(pyridin-4-yloxy)benzyl)piper-azine-1-carbonyl)-1H-pyrazole-3-carboxylic acid]	> 75%	> 75%	0 to 25%	0 to 25%				
O=C(O)c1ccn(C(=O)N2CCN(Cc3cccc(Oc4cnccn4)c3)CC2)n1 [Example 60]	25 to 50%	0 to 25%	0 to 25%	0 to 25%				
O=C(O)c1ccn(C(=O)N2CCN(Cc3cccc(Oc4ccc(C(F)(F)F)cn4)c3)CC2)n1 [Example 61, 1-(4-(3-((5-(trifluoromethyl)pyridin-2-yl)oxy)benzyl)piper-azine-1-carbonyl)-1H-pyrazole-3-carboxylic acid]	> 75%	> 75%	> 75%	> 75%		0.1 to 1 µM		
O=C(O)c1ccn(C(=O)N2CCN(Cc3cccc(Oc4ncccn4)c3)CC2)n1 [Example 62, 1-(4-(3-(pyrimidin-2-yloxy)benzyl)piper-azine-1-carbonyl)-1H-pyrazole-3-carboxylic acid]	50 to 75%	0 to 25%	0 to 25%	0 to 25%				
O=C(O)c1ccn(C(=O)N2CCN(Cc3cccc(Oc4ccncn4)c3)CC2)n1 [Example 63, 1-(4-(3-(pyrimidin-4-yloxy)benzyl)piper-azine-1-carbonyl)-1H-pyrazole-3-carboxylic acid]	25 to 50%	0 to 25%	0 to 25%	50 to 75%				
